The NIST ThermoML archive (doi:10.1016/j.fluid.2014.04.038)
“And” between values parts separate entries of the source, which are not always exact repeats. Identical values can stand only once.

Details: Hot wire method

CCF [fluoroethane]
Details	thermal conductivity [W/m/K]
327.04 K, 1095.3 kPa, Gas	0.01963
327.1 K, 807.3 kPa, Gas	0.01901
327.1 K, 968 kPa, Gas	0.01947
327.18 K, 798.3 kPa, Gas	0.01958
327.49 K, 616.5 kPa, Gas	0.01891
327.67 K, 420.8 kPa, Gas	0.01907
327.88 K, 999.2 kPa, Gas	0.01944
328.12 K, 807.3 kPa, Gas	0.01964
328.26 K, 616.5 kPa, Gas	0.0193
328.79 K, 420.8 kPa, Gas	0.01938
332.17 K, 969.9 kPa, Gas	0.02009
332.31 K, 756.8 kPa, Gas	0.01954
332.66 K, 396.8 kPa, Gas	0.01951
332.66 K, 969.9 kPa, Gas	0.02013
333.3 K, 756.8 kPa, Gas	0.01971
333.74 K, 396.8 kPa, Gas	0.01972
336.09 K, 1491 kPa, Gas	0.02082
336.27 K, 1198.3 kPa, Gas	0.02033
336.49 K, 1758.2 kPa, Gas	0.02175
336.67 K, 1491 kPa, Gas	0.02077
336.83 K, 865.8 kPa, Gas	0.01986
336.9 K, 1198.3 kPa, Gas	0.02068
336.91 K, 706.3 kPa, Gas	0.01983
337.06 K, 1758.2 kPa, Gas	0.02164
337.27 K, 1491 kPa, Gas	0.0208
337.33 K, 480.3 kPa, Gas	0.02
337.56 K, 1198.3 kPa, Gas	0.02055
337.61 K, 206.2 kPa, Gas	0.02003
337.81 K, 865.8 kPa, Gas	0.01999
337.89 K, 706.3 kPa, Gas	0.01991
338.08 K, 480.3 kPa, Gas	0.01991
338.76 K, 206.2 kPa, Gas	0.02026
345.5 K, 2260 kPa, Gas	0.0234
345.62 K, 2008 kPa, Gas	0.02287
345.73 K, 1253.4 kPa, Gas	0.02123
345.76 K, 1802.5 kPa, Gas	0.02255
345.91 K, 1001.2 kPa, Gas	0.0213
346.04 K, 748.6 kPa, Gas	0.02153
346.17 K, 2008 kPa, Gas	0.02305
346.18 K, 454.4 kPa, Gas	0.02091
346.2 K, 1802.5 kPa, Gas	0.02205
346.23 K, 2260 kPa, Gas	0.02334
346.43 K, 1560.1 kPa, Gas	0.02199
346.52 K, 1253.4 kPa, Gas	0.02134
346.59 K, 250.1 kPa, Gas	0.02108
346.68 K, 1001.2 kPa, Gas	0.02108
346.83 K, 454.4 kPa, Gas	0.02085
346.87 K, 2260 kPa, Gas	0.02339
346.91 K, 748.6 kPa, Gas	0.02154
347.13 K, 2008 kPa, Gas	0.02317
347.22 K, 1802.5 kPa, Gas	0.02234
347.3 K, 250.1 kPa, Gas	0.02135
347.67 K, 1560.1 kPa, Gas	0.02199
347.86 K, 1253.4 kPa, Gas	0.02137
348.08 K, 1001.2 kPa, Gas	0.02122
348.34 K, 748.6 kPa, Gas	0.02136
348.4 K, 250.1 kPa, Gas	0.0215
348.67 K, 454.4 kPa, Gas	0.02127
355.01 K, 2934.5 kPa, Gas	0.02654
355.38 K, 2586.5 kPa, Gas	0.02498
355.41 K, 2277.9 kPa, Gas	0.02422
355.59 K, 2007.1 kPa, Gas	0.02432
355.72 K, 1531.1 kPa, Gas	0.02295
355.79 K, 2586.5 kPa, Gas	0.02513
355.91 K, 2277.9 kPa, Gas	0.02436
355.95 K, 2934.5 kPa, Gas	0.0265
355.99 K, 1034.8 kPa, Gas	0.02302
356.06 K, 2007.1 kPa, Gas	0.02406
356.17 K, 611.2 kPa, Gas	0.02275
356.26 K, 2586.5 kPa, Gas	0.02498
356.27 K, 1531.1 kPa, Gas	0.02331
356.32 K, 266.7 kPa, Gas	0.02267
356.52 K, 2277.9 kPa, Gas	0.02412
356.55 K, 1034.8 kPa, Gas	0.0229
356.73 K, 2007.1 kPa, Gas	0.02363
356.82 K, 611.2 kPa, Gas	0.02305
357.02 K, 266.7 kPa, Gas	0.02276
357.06 K, 1531.1 kPa, Gas	0.02299
357.39 K, 1034.8 kPa, Gas	0.02287
357.69 K, 611.2 kPa, Gas	0.02264
357.98 K, 266.7 kPa, Gas	0.02298
364.77 K, 3438 kPa, Gas	0.02941
364.87 K, 3960.3 kPa, Gas	0.03259
365.05 K, 2942.4 kPa, Gas	0.02781
365.11 K, 3438 kPa, Gas	0.02942
365.43 K, 2942.4 kPa, Gas	0.02721
365.62 K, 2506.8 kPa, Gas	0.0257
365.62 K, 3718.5 kPa, Gas	0.03133
365.65 K, 3438 kPa, Gas	0.02965
365.98 K, 2942.4 kPa, Gas	0.027
365.99 K, 2001.8 kPa, Gas	0.02478
366.21 K, 2506.8 kPa, Gas	0.02572
366.21 K, 3718.5 kPa, Gas	0.03142
366.29 K, 533.7 kPa, Gas	0.02342
366.42 K, 1515.5 kPa, Gas	0.02467
366.63 K, 1029 kPa, Gas	0.0243
366.67 K, 2001.8 kPa, Gas	0.02473
366.76 K, 2506.8 kPa, Gas	0.02558
367.1 K, 1515.5 kPa, Gas	0.02393
367.32 K, 2001.8 kPa, Gas	0.02511
367.38 K, 533.7 kPa, Gas	0.0242
367.49 K, 1029 kPa, Gas	0.02463
368.3 K, 533.7 kPa, Gas	0.02352
368.41 K, 1515.5 kPa, Gas	0.02402
368.9 K, 1029 kPa, Gas	0.02415
373.83 K, 4470.3 kPa, Gas	0.03726
373.99 K, 4470.3 kPa, Gas	0.03714
374.47 K, 4470.3 kPa, Gas	0.03687
374.48 K, 2938.6 kPa, Gas	0.02793
374.62 K, 2478.9 kPa, Gas	0.02638
374.67 K, 3543.9 kPa, Gas	0.03045
374.7 K, 2119.8 kPa, Gas	0.02585
374.85 K, 1564.8 kPa, Gas	0.02515
375.05 K, 2938.6 kPa, Gas	0.02813
375.25 K, 2119.8 kPa, Gas	0.02574
375.37 K, 364.6 kPa, Gas	0.02485
375.68 K, 1564.8 kPa, Gas	0.0258
375.8 K, 2478.9 kPa, Gas	0.02745
375.94 K, 2119.8 kPa, Gas	0.02613
376.1 K, 887.8 kPa, Gas	0.02494
376.18 K, 1564.8 kPa, Gas	0.02555
376.41 K, 364.6 kPa, Gas	0.02448
376.83 K, 887.8 kPa, Gas	0.02525
377.08 K, 364.6 kPa, Gas	0.02454
377.36 K, 5247.3 kPa, Fluid (supercritical or subcritical phases)	0.07905
377.63 K, 5247.3 kPa, Fluid (supercritical or subcritical phases)	0.08228
377.73 K, 5247.3 kPa, Fluid (supercritical or subcritical phases)	0.08638
380.51 K, 5230.1 kPa, Fluid (supercritical or subcritical phases)	0.05046

Liquid
Details	thermal conductivity
334.87 K	0.09073 W/m/K and 0.09116 W/m/K and 0.09121 W/m/K
335.25 K	0.09091 W/m/K and 0.09082 W/m/K
335.26 K	0.09123 W/m/K
335.66 K	0.09055 W/m/K and 0.09054 W/m/K
335.67 K	0.09089 W/m/K
344.8 K	0.08543 W/m/K
344.82 K	0.08529 W/m/K and 0.08532 W/m/K
345.2 K	0.08496 W/m/K
345.21 K	0.08506 W/m/K and 0.08519 W/m/K
345.68 K	0.08484 W/m/K
345.7 K	0.08488 W/m/K
345.72 K	0.08489 W/m/K
354.61 K	0.081 W/m/K
354.62 K	0.08121 W/m/K and 0.08127 W/m/K
354.87 K	0.08113 W/m/K
354.88 K	0.08093 W/m/K and 0.08129 W/m/K
354.89 K	0.08101 W/m/K
354.97 K	0.08115 W/m/K
354.99 K	0.08085 W/m/K
355 K	0.08097 W/m/K
355.29 K	0.0807 W/m/K and 0.08094 W/m/K
355.3 K	0.08092 W/m/K
355.37 K	0.08104 W/m/K
355.38 K	0.08142 W/m/K and 0.08125 W/m/K
355.7 K	0.08043 W/m/K and 0.08031 W/m/K
355.71 K	0.08044 W/m/K
364.69 K	0.07657 W/m/K
364.71 K	0.07768 W/m/K
364.75 K	0.07676 W/m/K
365.06 K	0.07678 W/m/K
365.08 K	0.07679 W/m/K and 0.07656 W/m/K
365.47 K	0.07603 W/m/K
365.52 K	0.07616 W/m/K
365.53 K	0.07615 W/m/K
374.47 K	0.07323 W/m/K
374.48 K	0.07368 W/m/K and 0.07356 W/m/K
374.81 K	0.07343 W/m/K and 0.07344 W/m/K
374.82 K	0.07343 W/m/K
375.2 K	0.07321 W/m/K
375.21 K	0.07381 W/m/K and 0.07357 W/m/K
